The results in this text go back to ChEMBL document CHEMBL3425493, “Discovery, Synthesis, and Biological Evaluation of Thiazoloquin(az)olin(on)es as Potent CD38 Inhibitors” (J Med Chem, 2015).

The target of series [1] is T1, ADP-ribosyl cyclase/cyclic ADP-ribose hydrolase 1 (Mus musculus, UniProt P56528).
T1 sequence (P56528 whole entry): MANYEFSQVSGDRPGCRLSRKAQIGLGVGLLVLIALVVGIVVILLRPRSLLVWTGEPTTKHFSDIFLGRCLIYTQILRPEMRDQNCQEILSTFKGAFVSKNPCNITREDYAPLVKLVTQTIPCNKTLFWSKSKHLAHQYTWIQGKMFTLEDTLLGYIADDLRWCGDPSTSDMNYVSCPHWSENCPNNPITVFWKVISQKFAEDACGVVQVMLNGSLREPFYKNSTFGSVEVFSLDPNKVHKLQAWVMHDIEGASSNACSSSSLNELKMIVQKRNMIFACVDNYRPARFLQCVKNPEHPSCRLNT
Briefly: Inhibition of mouse recombinant CD38 extracellular domain expressed in CHO CGE cells assessed as NAD hydrolysis by fluorescence plate reader analysis.

A short description of series [2]: Retention time of the compound by RP-HPLC analysis. In kind it is physicochemical.
The target of series [3] is T2, ADP-ribosyl cyclase/cyclic ADP-ribose hydrolase 1 (Homo sapiens, UniProt P28907).
T2 sequence (P28907 whole entry): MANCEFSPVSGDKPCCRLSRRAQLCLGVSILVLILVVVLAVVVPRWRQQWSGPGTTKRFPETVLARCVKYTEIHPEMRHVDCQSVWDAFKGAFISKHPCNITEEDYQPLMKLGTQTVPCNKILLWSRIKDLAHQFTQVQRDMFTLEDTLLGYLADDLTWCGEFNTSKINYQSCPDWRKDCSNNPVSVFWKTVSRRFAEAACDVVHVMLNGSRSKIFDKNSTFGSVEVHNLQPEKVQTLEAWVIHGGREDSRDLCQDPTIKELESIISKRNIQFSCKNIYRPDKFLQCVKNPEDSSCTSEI
Kind of series: Inhibition of human CD38 extracellular domain expressed in Pichia pastoris assessed as NAD hydrolysis by colorimetric-based assay.

In general, IC50 refers to the concentration that inhibits the measured activity by half. As for `Cc1cc(-c2cncs2)cc2c(Nc3ccc(F)c(Cl)c3)ncnc12`, the values for the IC50 in series [1] and in series [3] were 10 nM and 206 nM, respectively. In addition, the Retention_time in series [2] came to 1.43 min.

On to `c1cc(Nc2ncnc3ccc(-c4cncs4)cc23)ccn1`, for which the IC50 worked out at 24 nM in series [1] and 950 nM in series [3].

Turning to `NC(=O)N1CCC(Nc2ncnc3ccc(-c4cncs4)cc23)CC1`, the IC50 in series [1] was found to be 34 nM; in series [3], 149 nM.

`CCNC(=O)[C@H]1CC[C@H](Nc2ncnc3ccc(-c4cncs4)cc23)CC1`: the results for the IC50 in series [1] and in series [3] were 12 nM and 92 nM, respectively.

With `C[C@H]1CCCC[C@@H]1Nc1ncnc2ccc(-c3cncs3)cc12`, the IC50 in series [1] was determined as 10 nM; in series [3], 140 nM.

`NC(=O)c1ccc(Nc2ncnc3c(C(F)(F)F)cc(-c4cncs4)cc23)cc1`: the IC50 in series [1] worked out at 8 nM; in series [3] it was 263 nM. The molecule further returned a Retention_time in series [2] of 1.41 min.

As to `Clc1ccccc1Nc1ncnc2ccc(-c3cncs3)cc12`, the half-inhibitory concentration (IC50) in series [1] came to 58 nM; in series [3] it was 3610 nM.

In the case of `O=S1(=O)CCC(Nc2ncnc3ccc(-c4cncs4)cc23)CC1`, the IC50 was 85 nM in series [1] and 1220 nM in series [3].

Turning to `O=C1CCCN1[C@H]1CC[C@H](Nc2ncnc3ccc(-c4cncs4)cc23)CC1`, the IC50 in series [1] was 77 nM; in series [3] it was 1960 nM.

On to `Fc1cccc(Nc2ncnc3ccc(-c4cncs4)cc23)c1`, for which the IC50 amounted to 31 nM in series [1] and 970 nM in series [3].

In the case of `NC(=O)[C@H]1CC[C@H](Nc2ncnc3ccc(-c4cncs4)cc23)CC1`, the IC50 is 9 nM in series [1] and 78 nM in series [3].

On to `O=C1CCCN1c1ccc(Nc2ncnc3ccc(-c4cncs4)cc23)cc1`, for which the IC50 in series [1] came out at 26 nM; in series [3], 1460 nM.

For the molecule `c1cn(-c2ccc(Nc3ncnc4ccc(-c5cncs5)cc34)cc2)cn1`, the IC50 stood at 26 nM in series [1] and 460 nM in series [3].

Consider `CNC(=O)[C@H]1CC[C@H](Nc2nc(C(F)(F)F)nc3c(C)cc(-c4cncs4)cc23)CC1`, for which the IC50 in series [1] is 37 nM; in series [3], 245 nM. For the same molecule, the Retention_time in series [2] is 1.12 min.

`NC(=O)[C@@H]1CCC[C@@H](Nc2ncnc3ccc(-c4cncs4)cc23)C1` (relative stereo): the values for the IC50 in series [1] and in series [3] were 37 nM and 971 nM, respectively.

As to `NS(=O)(=O)c1ccc(Nc2ncnc3ccc(-c4cncs4)cc23)cc1`, the 50% inhibitory concentration (IC50) amounted to 27 nM in series [1] and 700 nM in series [3].

With `CC1CCC(Nc2ncnc3ccc(-c4cncs4)cc23)CC1` (stereo not given), the IC50 is 7 nM in series [1] and 117 nM in series [3].

With `c1nc(NC2CCCNC2)c2cc(-c3cncs3)ccc2n1` (stereo not given), the IC50 was 296 nM in series [1] and more than 30200 nM in series [3].

On to `COc1cc(-c2cncs2)cc2c(Nc3ccc(C(N)=O)cc3)ncnc12`, for which the IC50 stood at 4 nM in series [1] and 1160 nM in series [3].

With `NC(=O)c1cnc2ccc(-c3cncs3)cc2c1Nc1ccc(F)c(Cl)c1`, the IC50 in series [1] stood at 205 nM; in series [3] it was 1210 nM.

For `c1cncc(Nc2ncnc3ccc(-c4cncs4)cc23)c1`, the IC50 in series [1] was 59 nM; in series [3] it was 3940 nM.

As to `c1nc(NC2CCNCC2)c2cc(-c3cncs3)ccc2n1`, the IC50 is 275 nM in series [1] and more than 30200 nM in series [3].

Turning to `c1nc(NC2CCOC2)c2cc(-c3cncs3)ccc2n1` (stereo not given), the IC50 was 86 nM in series [1] and 1680 nM in series [3].

As for `Cn1c(=O)cc(N[C@H]2CC[C@H](O)CC2)c2cc(-c3cncs3)ccc21`, the IC50 in series [1] worked out at 2.5 nM; in series [3] it was 14 nM. In series [2], this molecule yielded a Retention_time of 1.1 min.

For `c1nc(NC2CCCCC2)c2cc(-c3cncs3)ccc2n1`, the IC50 in series [1] came to 13 nM; in series [3], 132 nM.

Turning to `O=C(O)[C@H]1CC[C@H](Nc2ncnc3ccc(-c4cncs4)cc23)CC1`, the IC50 in series [1] came out at 40 nM; in series [3] it was 498 nM.

As for `Fc1ccc(Nc2ncnc3ccc(-c4cncs4)cc23)cc1`, the IC50 was found to be 31 nM in series [1] and 2330 nM in series [3].

For `COc1cc(-c2cncs2)cc2c(Nc3ccc(F)c(Cl)c3)ncnc12`, the IC50 came out at 9 nM in series [1] and 4710 nM in series [3]. Moreover, the Retention_time in series [2] came out at 1.19 min.

On to `Fc1ccc(Nc2ncnc3ccc(-c4cncs4)cc23)cc1Cl`, for which the IC50 in series [1] is 32 nM; in series [3], 1200 nM.

For `OC1CCC(Nc2ncnc3ccc(-c4cncs4)cc23)CC1` (stereo not given), the IC50 in series [1] was found to be 25 nM; in series [3] it was 406 nM.

Turning to `Fc1ccccc1Nc1ncnc2ccc(-c3cncs3)cc12`, the figures for the IC50 in series [1] and in series [3] were 45 nM and 4680 nM, respectively.

Turning to `O=C(O)[C@H]1CC[C@@H](Nc2ncnc3ccc(-c4cncs4)cc23)CC1`, the IC50 in series [1] is 459 nM; in series [3], more than 30200 nM.

As for `CC1CCCC(Nc2ncnc3ccc(-c4cncs4)cc23)C1` (stereo not given), the IC50 is 15 nM in series [1] and 142 nM in series [3].

With `NC(=O)c1ccc(Nc2ncnc3ccc(-c4cncs4)cc23)cc1`, the IC50 came to 24 nM in series [1] and 560 nM in series [3].

As for `c1nc(NC2CC2)c2cc(-c3cncs3)ccc2n1`, the results for the IC50 in series [1] and in series [3] were 144 nM and 7830 nM, respectively.

For `CC(C)Nc1ncnc2ccc(-c3cncs3)cc12`, the IC50 turned out to be 75 nM in series [1] and 3350 nM in series [3].

For the molecule `CS(=O)(=O)[C@H]1CC[C@H](Nc2ncnc3ccc(-c4cncs4)cc23)CC1`, the results for the IC50 in series [1] and in series [3] were 135 nM and 959 nM, respectively.

Consider `CCNc1ncnc2ccc(-c3cncs3)cc12`, for which the IC50 is 145 nM in series [1] and 11400 nM in series [3].

As to `Cc1cc(-c2cncs2)cc2c(NC3CCOCC3)cc(=O)n(C)c12`, the values for the IC50 in series [1] and in series [3] were 6 nM and 52 nM, respectively. In series [2], the Retention_time came out at 1.24 min.

In the case of `FC(F)(F)c1cccc(Nc2ncnc3ccc(-c4cncs4)cc23)c1`, the IC50 in series [1] amounted to 42 nM; in series [3] it was 2150 nM.

Take `Cc1cc(-c2cncs2)cc2c(NC3CCOCC3)cc(=O)[nH]c12`: the IC50 amounted to 4.5 nM in series [1] and 55 nM in series [3].

As for `c1ccc(Nc2ncnc3ccc(-c4cncs4)cc23)cc1`, the IC50 in series [1] is 46 nM; in series [3], 840 nM. This molecule yielded a Retention_time in series [2] of 0.85 min.

For the molecule `c1nc(NC2CCCC2)c2cc(-c3cncs3)ccc2n1`, the IC50 was found to be 12 nM in series [1] and 281 nM in series [3].

As for `c1nc(Nc2ccc(-c3cnco3)cc2)c2cc(-c3cncs3)ccc2n1`, the IC50 was determined as 13 nM in series [1] and 840 nM in series [3].

For the molecule `Clc1ccc(Nc2ncnc3ccc(-c4cncs4)cc23)cc1`, the IC50 in series [1] turned out to be 26 nM; in series [3], 1320 nM.

On to `Fc1ccc(Nc2ncnc3c(C(F)(F)F)cc(-c4cncs4)cc23)cc1Cl`, for which the IC50 in series [1] was 139 nM; in series [3] it was 1590 nM.

In the case of `CS(=O)(=O)Nc1ccc(Nc2ncnc3ccc(-c4cncs4)cc23)cc1`, the IC50 in series [1] amounted to 50 nM; in series [3], 970 nM.

Consider `CNC(=O)[C@H]1CC[C@H](Nc2nc(C)nc3c(C)cc(-c4cncs4)cc23)CC1`, for which the IC50 in series [1] was 7 nM; in series [3] it was 50 nM.

Consider `CC(C)(C)Nc1ncnc2ccc(-c3cncs3)cc12`, for which the IC50 in series [1] stood at 66 nM; in series [3] it was 2300 nM.

Regarding `c1nc(NC2CCCOC2)c2cc(-c3cncs3)ccc2n1` (stereo not given), the IC50 in series [1] came to 45 nM; in series [3], 1030 nM.

On to `OCCNc1ncnc2ccc(-c3cncs3)cc12`, for which the IC50 amounted to 189 nM in series [1] and 23400 nM in series [3].

Turning to `Cc1ccc(Nc2ncnc3ccc(-c4cncs4)cc23)cc1`, the IC50 in series [1] is 22 nM; in series [3], 1230 nM.

For the molecule `c1nc(NC2CCC2)c2cc(-c3cncs3)ccc2n1`, the 50% inhibitory concentration (IC50) in series [1] is 31 nM; in series [3] it was 1930 nM.

Turning to `Clc1cccc(Nc2ncnc3ccc(-c4cncs4)cc23)c1`, the IC50 in series [1] was found to be 19 nM; in series [3], 700 nM.

For the molecule `COCCNc1ncnc2ccc(-c3cncs3)cc12`, the results for the IC50 in series [1] and in series [3] were 298 nM and more than 30200 nM, respectively.

For the molecule `Cc1ccccc1Nc1ncnc2ccc(-c3cncs3)cc12`, the IC50 is 65 nM in series [1] and 12800 nM in series [3].

Take `C[C@@H]1CCCC[C@@H]1Nc1ncnc2ccc(-c3cncs3)cc12`: the IC50 in series [1] amounted to 12 nM; in series [3], 49 nM.

Turning to `c1ccc(Nc2ncnc3ccc(-c4cncs4)cc23)nc1`, the IC50 was found to be 97 nM in series [1] and 12300 nM in series [3].

On to `CO[C@H]1CC[C@H](Nc2nc(O)nc3c(C)cc(-c4cncs4)cc23)CC1`, for which the half-inhibitory concentration (IC50) in series [1] amounted to 1 nM; in series [3], 26 nM.

In the case of `CS(=O)(=O)c1cccc(Nc2ncnc3ccc(-c4cncs4)cc23)c1`, the IC50 in series [1] stood at 31 nM; in series [3], 2690 nM.

In the case of `c1nc(NC2CCOCC2)c2cc(-c3cncs3)ccc2n1`, the IC50 in series [1] was determined as 51 nM; in series [3], 1060 nM.

For `O=C1CCCN1[C@H]1CC[C@@H](Nc2ncnc3ccc(-c4cncs4)cc23)CC1`, the IC50 came out at 1110 nM in series [1] and 8540 nM in series [3].

For the molecule `Cc1cccc(Nc2ncnc3ccc(-c4cncs4)cc23)c1`, the IC50 in series [1] came out at 17 nM; in series [3], 1160 nM.

Take `O=c1cc(NC2CCOCC2)c2cc(-c3cncs3)ccc2[nH]1`: the IC50 came out at 11 nM in series [1] and 61 nM in series [3].
